Data published in the NIST ThermoML archive (doi:10.1021/je400184t).

Assay: excess molar enthalpy (molar enthalpy of mixing); xn = mol fraction of the nth substance listed
Details: 298.15 K, 101 kPa, Liquid, Calvet calorimetry

NCCO [2-aminoethan-1-ol] + c1ccncc1
Details | excess molar enthalpy [kcal/mol]
x2 = 0.00998 | 0.00765
x2 = 0.0187 | 0.0143
x2 = 0.02728 | 0.021
x2 = 0.0357 | 0.0272
x2 = 0.04398 | 0.0335
x2 = 0.05212 | 0.0394
x2 = 0.06012 | 0.0452
x2 = 0.06798 | 0.0509
x2 = 0.07572 | 0.0562
x2 = 0.08333 | 0.0614
x2 = 0.09081 | 0.0667
x2 = 0.09818 | 0.0715
x2 = 0.1054 | 0.0762
x2 = 0.1125 | 0.0808
x2 = 0.1196 | 0.0851
x2 = 0.1265 | 0.0894
x2 = 0.1333 | 0.093
x2 = 0.14 | 0.09656
x2 = 0.1466 | 0.1001
x2 = 0.153 | 0.1035
x2 = 0.1594 | 0.1066
x2 = 0.1657 | 0.1097
x2 = 0.1719 | 0.113
x2 = 0.1782 | 0.115
x2 = 0.1845 | 0.118
x2 = 0.1907 | 0.1212
x2 = 0.197 | 0.124
x2 = 0.2032 | 0.1267
x2 = 0.2095 | 0.1293
x2 = 0.2157 | 0.1319
x2 = 0.222 | 0.1343
x2 = 0.2282 | 0.137
x2 = 0.2345 | 0.1393
x2 = 0.2407 | 0.1417
x2 = 0.247 | 0.1439
x2 = 0.2532 | 0.1463
x2 = 0.2595 | 0.1484
x2 = 0.2657 | 0.1508
x2 = 0.272 | 0.153
x2 = 0.2782 | 0.1551
x2 = 0.2845 | 0.157
x2 = 0.2907 | 0.1592
x2 = 0.297 | 0.1611
x2 = 0.3032 | 0.163
x2 = 0.3095 | 0.1649
x2 = 0.3157 | 0.1668
x2 = 0.322 | 0.1687
x2 = 0.3282 | 0.1704
x2 = 0.3345 | 0.1723
x2 = 0.3407 | 0.174
x2 = 0.347 | 0.1757
x2 = 0.3532 | 0.1773
x2 = 0.3595 | 0.179
x2 = 0.3621 | 0.1797
x2 = 0.3652 | 0.1804
x2 = 0.3684 | 0.1812
x2 = 0.3716 | 0.1821
x2 = 0.3748 | 0.1828
x2 = 0.3781 | 0.1836
x2 = 0.3815 | 0.1845
x2 = 0.385 | 0.1852
x2 = 0.3885 | 0.1859
x2 = 0.3921 | 0.1867
x2 = 0.3957 | 0.1869
x2 = 0.3994 | 0.1879
x2 = 0.4032 | 0.1888
x2 = 0.407 | 0.1898
x2 = 0.4109 | 0.1905
x2 = 0.4149 | 0.1914
x2 = 0.419 | 0.1924
x2 = 0.4232 | 0.1934
x2 = 0.4274 | 0.1943
x2 = 0.4317 | 0.195
x2 = 0.4361 | 0.196
x2 = 0.4406 | 0.1969
x2 = 0.4452 | 0.1977
x2 = 0.4499 | 0.1986
x2 = 0.4547 | 0.1993
x2 = 0.4596 | 0.2003
x2 = 0.4646 | 0.201
x2 = 0.4698 | 0.202
x2 = 0.475 | 0.2027
x2 = 0.4803 | 0.2034
x2 = 0.4858 | 0.2043
x2 = 0.4914 | 0.2051
x2 = 0.4971 | 0.2055
x2 = 0.503 | 0.2063
x2 = 0.509 | 0.207
x2 = 0.5151 | 0.2075
x2 = 0.5214 | 0.2079
x2 = 0.5219 | 0.2082
x2 = 0.5284 | 0.2087
x2 = 0.535 | 0.2091
x2 = 0.5418 | 0.2096
x2 = 0.5488 | 0.2098
x2 = 0.5559 | 0.2103
x2 = 0.5633 | 0.2103
x2 = 0.5708 | 0.2106
x2 = 0.5786 | 0.2106
x2 = 0.5865 | 0.2106
x2 = 0.5947 | 0.2106
x2 = 0.6031 | 0.2103
x2 = 0.6117 | 0.2101
x2 = 0.6206 | 0.2096
x2 = 0.6298 | 0.2089
x2 = 0.6392 | 0.2082
x2 = 0.649 | 0.2072
x2 = 0.659 | 0.206
x2 = 0.6693 | 0.2046
x2 = 0.68 | 0.2029
x2 = 0.691 | 0.201
x2 = 0.7024 | 0.1989
x2 = 0.7141 | 0.1965
x2 = 0.7263 | 0.1934
x2 = 0.7389 | 0.1902
x2 = 0.7519 | 0.1862
x2 = 0.7654 | 0.1819
x2 = 0.7793 | 0.1766
x2 = 0.7938 | 0.1709
x2 = 0.8089 | 0.1642
x2 = 0.8245 | 0.1568
x2 = 0.8408 | 0.1482
x2 = 0.8577 | 0.1377
x2 = 0.8753 | 0.1264
x2 = 0.8936 | 0.113
x2 = 0.9127 | 0.09728
x2 = 0.9327 | 0.0791
x2 = 0.9535 | 0.0574
x2 = 0.9753 | 0.0323
x2 = 0.9981 | 0.0012
